# Active and inactive are the calls of the source. The rule behind the calls is not given here.
# Target: Alkaline phosphatase, germ cell type (Homo sapiens) (UniProt P10696)
# Assay: effect of analogs on PLAP-like activity, SAR follow-up, selectivity assay for mouse IAP activator project, biochemical, human placental-like ALPPL2 isozyme (AID 493139)
# Conditions: purified human placental-like alkaline phosphatase, enzymatic activity
# Chain of Alkaline phosphatase, germ cell type (Homo sapiens) (P10696 whole entry, looked up): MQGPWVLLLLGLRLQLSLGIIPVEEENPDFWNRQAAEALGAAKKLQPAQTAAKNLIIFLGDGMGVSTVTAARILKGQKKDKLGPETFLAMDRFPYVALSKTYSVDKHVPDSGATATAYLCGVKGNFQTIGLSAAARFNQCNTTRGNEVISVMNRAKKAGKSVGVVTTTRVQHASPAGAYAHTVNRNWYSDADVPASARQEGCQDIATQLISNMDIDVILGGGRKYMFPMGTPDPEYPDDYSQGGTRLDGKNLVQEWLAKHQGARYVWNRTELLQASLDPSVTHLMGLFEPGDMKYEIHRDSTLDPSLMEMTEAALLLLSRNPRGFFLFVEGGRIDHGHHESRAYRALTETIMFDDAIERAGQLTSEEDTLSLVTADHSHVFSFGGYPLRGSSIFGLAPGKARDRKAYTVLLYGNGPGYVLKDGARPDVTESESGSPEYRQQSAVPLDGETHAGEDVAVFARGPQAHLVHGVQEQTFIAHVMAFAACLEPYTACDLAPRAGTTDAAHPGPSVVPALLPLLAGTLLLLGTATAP
row,IC50 (inhibition of PLAP activity),SMILES
1,> 100 µM (inactive),O=C(CN1C(=O)/C(=C\c2ccco2)SC1=S)Nc1ccc(C(=O)O)cc1
2,> 100 µM (inactive),COc1cccc(CNC(=O)CCNS(=O)(=O)c2ccc3[nH]c(=O)oc3c2)c1
3,> 100 µM (inactive),COc1cccc(NC(=O)CN(C)S(=O)(=O)c2ccc3[nH]c(=O)oc3c2)c1
4,> 100 µM (inactive),CCc1nnc(NC(=O)CSc2sc3c(O)cc(=O)[nH]c3c2C#N)s1
5,> 100 µM (inactive),O=C(CCN1C(=O)/C(=C\c2ccco2)SC1=S)Nc1ccc(C(=O)O)c(O)c1
6,21.9 µM,COc1cc(C(=O)NNC(=O)c2n[nH]c3ccccc23)cc(OC)c1OC
7,> 100 µM (inactive),Cc1ccc(NC(=O)CCNS(=O)(=O)c2ccc3[nH]c(=O)oc3c2)c(C)c1
8,35.7 µM,COc1cc(C(=O)NNC(=S)NC(=O)c2ccccc2C)cc(OC)c1OC
9,32.6 µM,CC(C(=O)Nc1ccc(C(=O)O)c(O)c1)N1C(=O)/C(=C\c2ccco2)SC1=S (stereo not given)
10,> 100 µM (inactive),COc1ccc(Cl)cc1NC(=O)CSc1sc2c(O)cc(=O)[nH]c2c1C#N
11,28.5 µM,O=C(CN1C(=O)/C(=C/c2ccco2)SC1=S)NC1C=CS(=O)(=O)C1 (stereo not given)
12,> 100 µM (inactive),CC(C)C(C(=O)NC1CCS(=O)(=O)C1)N1C(=O)/C(=C\c2ccco2)SC1=S (stereo not given)
13,> 100 µM (inactive),Cc1ccc(/C=N/NC(=O)c2cc(O)c(O)c(O)c2)cc1
14,> 100 µM (inactive),O=C(CCCN1C(=O)/C(=C/c2ccco2)SC1=S)Nc1ccccc1
15,> 100 µM (inactive),N#Cc1c(SCC(=O)Nc2nccs2)sc2c(O)cc(=O)[nH]c12
16,> 100 µM (inactive),O=C(CCNS(=O)(=O)c1ccc2[nH]c(=O)oc2c1)Nc1ccccc1
17,> 100 µM (inactive),CCOC(=O)N1CCC(NC(=O)CSc2sc3c(O)cc(=O)[nH]c3c2C#N)CC1
18,> 100 µM (inactive),Cc1ccc(NC(=O)CCNS(=O)(=O)c2ccc3[nH]c(=O)oc3c2)cc1
19,> 100 µM (inactive),Cc1cc(NC(=O)CSc2sc3c(O)cc(=O)[nH]c3c2C#N)ccc1Br
20,> 100 µM (inactive),COc1cc(Cl)c(C)cc1NC(=O)CSc1sc2c(O)cc(=O)[nH]c2c1C#N

row,IC50 (inhibition of PLAP activity),SMILES
1,78.4 µM,O=C(CN1C(=O)/C(=C/c2ccco2)SC1=S)Nc1ccc(C(=O)O)c(O)c1
2,> 100 µM (inactive),N#Cc1c(SCC(=O)Nc2ccc(C(F)(F)F)cc2)sc2c(O)cc(=O)[nH]c12
3,> 100 µM (inactive),Cc1ccc(/C=C2\SC(=S)N(C3CCS(=O)(=O)C3)C2=O)o1 (stereo not given)
4,> 100 µM (inactive),CCc1ccc(NC(=O)CN(C)S(=O)(=O)c2ccc3[nH]c(=O)oc3c2)cc1
5,> 100 µM (inactive),CCOc1ccc2nc(NC(=O)CN(C)S(=O)(=O)c3ccc4[nH]c(=O)oc4c3)sc2c1
6,40.7 µM,COc1ccc(NC(=S)NCCC(c2ccccc2)c2ccccc2)cc1
7,> 100 µM (inactive),COC(=O)NNC(=O)c1cc(OC)c(OC)c(OC)c1
8,> 100 µM (inactive),N#Cc1c(SCC(=O)Nc2nc3ccccc3s2)sc2c(O)cc(=O)[nH]c12
9,> 100 µM (inactive),COc1ccc(OC)c(NC(=O)CSc2sc3c(O)cc(=O)[nH]c3c2C#N)c1
10,> 100 µM (inactive),O=[N+]([O-])c1ccc(NC(=S)NCCC(c2ccccc2)c2ccccc2)cc1
11,> 100 µM (inactive),CCOC(=O)NC(=O)CSc1sc2c(O)cc(=O)[nH]c2c1C#N
12,> 100 µM (inactive),O=S(=O)(Nc1ncccn1)c1ccc(NC(=S)NCCC(c2ccccc2)c2ccccc2)cc1
13,> 100 µM (inactive),CCOc1cccc(NC(=O)CSc2sc3c(O)cc(=O)[nH]c3c2C#N)c1
14,> 100 µM (inactive),CCCSc1nnc(NC(=O)CSc2sc3c(O)cc(=O)[nH]c3c2C#N)s1
15,> 100 µM (inactive),O=C(C1CCN(S(=O)(=O)c2ccc3[nH]c(=O)oc3c2)CC1)N1CC=C(c2ccccc2)CC1
16,> 100 µM (inactive),O=C(N/N=C/c1ccccc1F)c1cc(O)c(O)c(O)c1
17,> 100 µM (inactive),CCOc1ccccc1NC(=O)CCNS(=O)(=O)c1ccc2[nH]c(=O)oc2c1
18,> 100 µM (inactive),N#Cc1c(SCC(=O)Nc2nc3ccc(Br)cc3s2)sc2c(O)cc(=O)[nH]c12
19,> 100 µM (inactive),O=C(CN1C(=O)/C(=C/c2ccco2)SC1=S)N[C@@H]1CSC[C@@H]1O
20,> 100 µM (inactive),Cc1ccc(Cl)cc1NC(=O)CSc1sc2c(O)cc(=O)[nH]c2c1C#N

row,IC50 (inhibition of PLAP activity),SMILES
1,> 100 µM (inactive),COc1ccccc1NC(=O)CCNS(=O)(=O)c1ccc2[nH]c(=O)oc2c1
2,> 100 µM (inactive),COc1ccc(NC(=O)C(CC(C)C)NS(=O)(=O)c2ccc3[nH]c(=O)oc3c2)cc1 (stereo not given)
3,> 100 µM (inactive),COc1cc(C(=O)NNC(=O)C2CC2)cc(OC)c1OC
4,15.3 µM,COc1cc(C(=O)NNc2nc3cc4c(cc3s2)OCO4)cc(OC)c1OC
5,> 100 µM (inactive),CC(C)NC(=O)CSc1sc2c(O)cc(=O)[nH]c2c1C#N
6,> 100 µM (inactive),COc1cc([N+](=O)[O-])ccc1NC(=S)NCCC(c1ccccc1)c1ccccc1
7,> 100 µM (inactive),COC(=O)c1ccc(C)c(NC(=O)CSc2sc3c(O)cc(=O)[nH]c3c2C#N)c1
8,> 100 µM (inactive),COc1ccc(CNC(=O)CSc2sc3c(O)cc(=O)[nH]c3c2C#N)cc1OC
9,17.9 µM,O=C1/C(=C/c2ccco2)SC(=S)N1C1CCS(=O)(=O)C1 (stereo not given)
10,53.5 µM,O=C(NNC(=O)c1cc(O)c(O)c(O)c1)NC1CCCCC1
11,> 100 µM (inactive),O=C(CN1C(=O)/C(=C/c2ccco2)SC1=S)Nc1cccc(C(=O)O)c1
12,> 100 µM (inactive),CC(C(=O)N(C)C1CCS(=O)(=O)C1)N1C(=O)/C(=C/c2ccco2)SC1=S (stereo not given)
13,> 100 µM (inactive),CCN(C(=O)CN1C(=O)/C(=C\c2ccco2)SC1=S)C1CCS(=O)(=O)C1 (stereo not given)
14,> 100 µM (inactive),O=C(CCCN1C(=O)/C(=C\c2ccco2)SC1=S)Nc1ccc(O)cc1C(=O)O
15,27 µM,O=C(CN1C(=O)/C(=C/c2ccco2)SC1=S)Nc1ccc(O)c(C(=O)O)c1
16,> 100 µM (inactive),CCSc1nnc(NC(=O)CSc2sc3c(O)cc(=O)[nH]c3c2C#N)s1
17,> 100 µM (inactive),CCN(C(=O)C(C)N1C(=O)/C(=C/c2ccco2)SC1=S)C1CCS(=O)(=O)C1 (stereo not given)
18,> 100 µM (inactive),COc1ccc(NC(=O)CCNS(=O)(=O)c2ccc3[nH]c(=O)oc3c2)cc1Cl
19,> 100 µM (inactive),COc1ccccc1NC(=O)CSc1sc2c(O)cc(=O)[nH]c2c1C#N
20,> 100 µM (inactive),CN1CCC(=NNC(=O)c2cc(O)c(O)c(O)c2)CC1
